Reference: publication PMC6199744, “Development of Chemical Proteomics for the Folateome and Analysis of the Kinetoplastid Folateome” (ACS Infectious Diseases, 2018)

Test system: L. major lysate proteins
Experiment: Multitargeted bead mixture chemoproteomics, single concentration competition, proteome-wide
Assay type: binding

Nc1nc2c(c(=O)[nH]1)N(C=O)C(CNc1ccc(C(=O)N[C@@H](CCC(=O)O)C(=O)O)cc1)CN2 (stereo partly drawn) [LEU, leucovorin]
fold change relative to vehicle control (protein LMJF.35.1220, SHORT CHAIN DEHYDROGENASE, PUTATIVE): 1.29
fold change relative to vehicle control (protein LMJF.35.1380, MITOCHONDRIAL PROCESSING PEPTIDASE, BETA SUBUNIT, PUTATIVE): 0.96
fold change vs vehicle control (protein LMJF.35.1830 HY[…], CONSERVED): 1.03
fold change vs vehicle control (protein LMJF.35.3340 6-phosphogluconate dehydrogenase): 1.03
fold change (protein LMJF.35.3700 GIM5A PROTEIN, PUTATIVE,GLYCOSOMAL MEMBRANE PROTEIN, vehicle control = 1): 0.87
fold change vs vehicle control (protein LMJF.35.3760 60S RIBOSOMAL PROTEIN L27A/L29, PUTATIVE): 1.05
fold change relative to vehicle control (protein LMJF.35.3840, […] 2 SUBUNIT, PUTATIVE): 1.16
fold change vs vehicle control (protein LMJF.35.3860 T-COMPLEX PROTEIN 1, ETA SUBUNIT, PUTATIVE): 0.98
fold change (protein LMJF.35.4420 MITOCHONDRIAL PHOSPHATE TRANSPORTER, PUTATIVE, vehicle control = 1): 1
fold change relative to vehicle control (protein LMJF.35.4880, HYPOTHETICAL PROTEIN, CONSERVED (TPR repeat, putative)): 1.3
fold change relative to vehicle control (protein LMJF.35.5330, ISOPENTENYL-D[…]-ISOMERASE, PUTATIVE): 1.06
fold change relative to vehicle control (protein LMJF.36.0070, STRESS-INDUCIBLE PROTEIN STI1 HOMOLOG): 1.81
fold change (protein LMJF.36.0480 HYPOTHETICAL PROTEIN, CONSERVED, vehicle control = 1): 1
fold change vs vehicle control (protein LMJF.36.0620 HYPOTHETICAL PROTEIN, CONSERVED): 0.9
fold change vs vehicle control (protein LMJF.36.0930 40S RIBOSOMAL PROTEIN S18, PUTATIVE): 1.19
fold change vs vehicle control (protein LMJF.36.0990 40S RIBOSOMAL PROTEIN S10, PUTATIVE): 0.91
fold change (protein LMJF.36.1140 SHORT CHAIN 3-HYDROXYACYL-COA DEHYDROGENASE, PUTATIVE, vehicle control = 1): 0.94
fold change relative to vehicle control (protein LMJF.36.1260, FRUCTOSE-1,6-BI[…]): 1.16
fold change (protein LMJF.36.1340 N-ACETYLTRANSFERASE SUBUNIT NAT1, PUTATIVE, vehicle control = 1): 0.92
fold change vs vehicle control (protein LMJF.36.1650 PROTEASOME BETA 5 SUBUNIT, PUTATIVE): 0.98
fold change relative to vehicle control (protein LMJF.36.2380, STEROL 24-C-METHYLTRANSFERASE, PUTATIVE): 1.04
fold change vs vehicle control (protein LMJF.36.2950 SUCCINYL-COA LIGASE GDP-FORMING] BETA-CHAIN, PUTATIVE): 0.96
fold change vs vehicle control (protein LMJF.36.3210 14-3-3 PROTEIN-LIKE PROTEIN): 1.08
fold change vs vehicle control (protein LMJF.36.3410 SHORT CHAIN DEHYDROGENASE-LIKE PROTEIN): 0.97
fold change (protein LMJF.36.3460 HYPOTHETICAL PROTEIN, CONSERVED (NIPSNAP, putative), vehicle control = 1): 0.75
fold change (protein LMJF.36.3580 HYPOTHETICAL PROTEIN, CONSERVED (Protein of unknown function (DUF2009), putative), vehicle control = 1): 0.85
fold change (protein LMJF.36.3750 40S RIBOSOMAL PROTEIN S27-1, PUTATIVE, vehicle control = 1): 0.85
fold change vs vehicle control (protein LMJF.36.3910 S-ADENOSYLHOMOCYSTEINE HYDROLASE): 0.94
fold change vs vehicle control (protein LMJF.36.5010 40S RIBOSOMAL PROTEIN SA, PUTATIVE): 1.03
fold change vs vehicle control (protein LMJF.36.5130 HY[…], CONSERVED): 1.01
fold change vs vehicle control (protein LMJF.36.5150 HYPOTHETICAL PROTEIN, CONSERVED): 0.93
fold change relative to vehicle control (protein LMJF.36.5380, NADH DEHYDROGENASE, PUTATIVE): 1.07
fold change vs vehicle control (protein LMJF.36.5390 PHOSPHORIBOSYLPYROPHOSPHATE SYNTHETASE, PUTATIVE): 0.99
fold change vs vehicle control (protein LMJF.36.5620 ISOLEUCYL-TRNA SYNTHETASE, PUTATIVE): 0.94
fold change (protein LMJF.36.6430 PROTEIN TRANSPORT PROTEIN SEC23-LIKE PROTEIN, vehicle control = 1): 1.17
fold change vs vehicle control (protein LMJF.36.6760 HYPOTHETICAL PROTEIN, CONSERVED): 0.87
fold change relative to vehicle control (protein LMJF.[…], MIT[…] BETA SUBUNIT, PUTATIVE): 1.14
fold change relative to vehicle control (protein LMJF.[…], POLY(A) EXPORT PROTEIN, PUTATIVE): 1.24
fold change (vs vehicle control, protein LINJ.20.0630 CYTIDINE TRIPHOSPHATE SYNTHASE, PUTATIVE,CTP SYNTHASE, PUTATIVE): 0.91
fold change (vs vehicle control, protein LINJ.20.1390 COATOMER BETA SUBUNIT, PUTATIVE): 0.96
fold change (vs vehicle control, protein LMJF.05.1140 VACUOLAR ATPASE SUBUNIT-LIKE PROTEIN): 0.75
fold change (vs vehicle control, protein LMJF.07.1090 DELTA-5 FATTY ACID DESATURASE): 0.88
fold change (vs vehicle control, protein LMJF.09.0220 HYPOTHETICAL PROTEIN, CONSERVED): 0.73
fold change (vs vehicle control, protein LMJF.11.1030 HYPOTHETICAL PROTEIN, CONSERVED): 0.86
fold change (vs vehicle control, protein LMJF.14.0640 FATTY ACID ELONGASE, PUTATIVE): 0.71
fold change (vs vehicle control, protein LMJF.14.0705 FATTY ACID ELONGASE, PUTATIVE): 0.92
fold change (vs vehicle control, protein LMJF.14.1120 KINESIN K39, PUTATIVE): 0.96
fold change (vs vehicle control, protein LMJF.16.1610 PROHIBITIN): 1.01
fold change (vs vehicle control, protein LMJF.17.0010 HYPOTHETICAL PROTEIN, CONSERVED): 0.94
fold change (vs vehicle control, protein LMJF.18.1130 RAS-RELATED PROTEIN RAB-5, PUTATIVE): 0.82
fold change (vs vehicle control, protein LMJF.19.1420 CYSTEINE PEPTIDASE A (CPA)): 0.84
fold change (vs vehicle control, protein LMJF.21.0280 HY[…], CONSERVED): 0.97
fold change (vs vehicle control, protein LMJF.22.1560 40S RIBOSOMAL PROTEIN L14, PUTATIVE): 0.93
fold change (vs vehicle control, protein LMJF.23.1220 T-COMPLEX PROTEIN 1, GAMMA SUBUNIT, PUTATIVE): 0.94
fold change (vs vehicle control, protein LMJF.24.0370 ASPARTATE AMINOTRANSFERASE, PUTATIVE): 0.99
fold change (vs vehicle control, protein LMJF.25.1770 ENOYL-COA REDUCTASE, PUTATIVE): 0.97
fold change (vs vehicle control, protein LMJF.26.0170 60S RIBOSOMAL PROTEIN L7, PUTATIVE): 0.85
fold change (vs vehicle control, protein LMJF.26.1550 TRI[…] ALPHA SUBUNIT, MIT[…]-LIKE PROTEIN): 1.09
fold change (vs vehicle control, protein LMJF.26.1610 PROLINE OXIDASE, MITOCHONDRIAL PRECURSOR-LIKE PROTEIN): 0.79
fold change (vs vehicle control, protein LMJF.28.1950 X-PRO, DIPEPTIDYL-PEPTIDASE,SERINE PEPTIDASE, CLAN SC, FAMILY S15, PUTATIVE): 0.96
fold change (vs vehicle control, protein LMJF.31.1070 BIOTIN/LIPOATE PROTEIN LIGASE-LIKE PROTEIN): 0.88
fold change (vs vehicle control, protein LMJF.32.1370 HY[…], CONSERVED): 0.92
fold change (vs vehicle control, protein LMJF.34.0490 IMPORTIN BETA-1 SUBUNIT, PUTATIVE): 1.14
fold change (vs vehicle control, protein LMJF.34.4060 UBIQUITIN HYDROLASE, PUTATIVE,CYSTEINE PEPTIDASE, CLAN CA, FAMILY C19, PUTATIVE): 0.88
fold change (vs vehicle control, protein LMJF.36.1600 PROTEASOME ALPHA 1 SUBUNIT, PUTATIVE): 0.98
fold change (vs vehicle control, protein LMJF.[…] RIBOSOMAL PROTEIN S7, PUTATIVE): 0.99
